Test system: nuclear p65 activation
Assay: TransAM NF-κB ELISA of nuclear p65 activation in mdx costal diaphragm
Type: in vivo, mdx mice
Procedure: Cytosolic and nuclear fractions were obtained from isolated costal diaphragm using techniques that were slightly modified from Kumar and Boriek (2003). The muscles were removed from vehicle and drug-treated euthanized mdx mice at the end of the treatment period, and were flash-frozen and stored at −80° C. for a period of 1 to 4 weeks. The muscles were then thawed and weighed before being homogenized on ice using a mortar and pestle in low salt lysis (LSL) buffer (1 mg muscle wet weight/18 μl solution; in mM: 10 HEPES, 10 KCl, 1.5 MgCl2, 0.1 EDTA, 0.1 EGTA, 1 dithiothreitol (DTT), 0.5 phenylmethylsulfonylfluoride (PMSF); 0.5 mg/ml benzamidine, 4.0 μl/ml protease inhibitor cocktail Sigma #8340 (PIC) to produce the following final concentrations—2.1 μg/ml leupeptin, 3.85 μg/ml aprotinin, 0.416 mM AEBSF (Sigma A8456), 16 μM bestatin, 6 μM pepstatin A, 5.6 μM E64; pH 7.9). To lyse the cells, the ground tissue was then subjected to 2 freeze-thaw cycles (5 min freeze on dry ice followed by thawing at room temperature), and was subsequently vortexed and centrifuged (13,000 rpm, 15 s). The supernatant cytosolic extract was immediately frozen (−80° C.) for subsequent analyses as needed, while the nuclear pellet was washed in 50 μl LSL (2 times) before being re-suspended on ice in a high salt nuclear extraction buffer (in mM: 20 HEPES, 420 NaCl, 1 EDTA, 1 EGTA, 1 DTT, 0.5 PMSF; 25% glycerol, 0.5 mg/ml benzamidine, 4.0 μl/ml PIC; pH 7.9) at a ratio of 4 μl of solution per mg muscle wet weight. Preparations were incubated on ice for 30 min and vortexed for 10 s every 5 min before being centrifuged (13,000 rpm, 6 min) at 4° C. The supernatant nuclear extract was then removed and frozen (−80° C.) for subsequent analyses. Potential contamination of nuclear extracts with cytoplasmic proteins was less than 5%. Protein determinations for each fraction were obtained using the Bradford assay.
The Trans-Am assay (Active Motif; Carlsbad, Calif.) was used to determine nuclear NF-κB activation in nuclear fractions which were applied to the 96 well ELISA plates at 2-20 μg protein. The p65 primary antibody (catalogue number 40096) was used to detect p65 bound to oligonucleotide in vehicle and drug-treated preparations in accordance with kit instructions. A nuclear extract from Jurkat cells was routinely run as a positive control in association with each set of control and experimental samples.
Horizontal dashed lines indicate average levels observed in nondystrophic, vehicle, and UDCA treated preparations as indicated. In each case, percent recovery is determined by dividing the mean improvement observed in the UDCA treated preparation (UDCA-vehicle) from the deficit observed in the vehicle-treated preparation (nondystrophic-vehicle mdx). Mdx mice were treated for 30 days beginning at 1 month of age. Horizontal dashed lines in (A) and (B) representing nondystrophic values were obtained from a cohort of nondystrophic mice at 2 months of age. […] The results were obtained from two separate groups of vehicle and UDCA treated preparations that were assayed using two different 96 well plates. For each plate, the absorbance for each sample was normalized to the average absorbance determined for the vehicle-treated preparations on that plate. […] Millman et al., 2007. N is the number of mice and preparations in each condition. Shown are the means and standard errors. […] indicate p<0.05 and p<0.01, respectively, between vehicle and UDCA treated preparations. […]

In the case of `S=C(S)N1CCCC1` [PDTC, pyrrolidine dithiocarbamate], the “reduction of nuclear p65 activation” value (mature adult mdx, PDTC 50 mg/kg/day ip 30 days, not significant, p=0.4, N=4 vehicle, N=3 PDTC) is reported as 23% and the “effect on nuclear p65 activation” value (young adult mdx, PDTC 60 days beginning at 30 days of age, N=5 per group) is reported as “no effect”.
